In publication PMC3920720, “Triterpenes and Steroids from Euphorbia denticulata Lam. With Anti-Herpes Symplex Virus Activity” (Iranian Journal of Pharmaceutical Research : IJPR, 2013):
≈ marks a conversion by molar mass, not a printed value. Where two headings read alike, the source gives them in different places.

Key:
HSV-1 [1] = experiment: Time-course anti-virus analysis (MTS, addition pre-, co- or post-infection); assay type: cell-based, Herpes simplex virus type 1 (HSV-1, strain KOS); conditions: post-infection; 1, 10, 100 μg/mL; added 1 h before to 24 h after infection; MTS after 3 days
Procedure: Different non-cytotoxic concentrations (≤ CC50 values) of test compounds were added to culture cells in triplicate at different times pre-infection or post-infection. HSV-1(10 TCID50 per well) was inoculated onto confluent monolayers of Vero cells for 2 h. After 3 days, MTS test and antiviral activity were carried out as previously described ([3]).
Inhibition was evaluated by MTS assay after 3 days of infection and expressed as percentage inhibition.
Figure 3 Inhibitory effect of test compounds at different concentrations (1, 10, 100 μg/mL) at various times pre-infection , co-infection and post-infection of herpesvirus (HSV-1) to Vero cells. a) betulin, and b) (3β,23E)-Cycloarta-23-ene-3,25-diol were added with the HSV-1 infected Vero cells at various times period like pre-infection (− 1 h), co-infection (0 h) or post-infection( 2-24 h). After 3 days of incubation at 37°C, inhibition was evaluated by MTS assay and expressed as the inhibition percentage. Each point represents the mean of three independent experiments

HSV-1 [2] = experiment: Antiviral assay using MTS method (HSV-1 infected Vero cells); assay type: cell-based, Herpes simplex virus type 1 (HSV-1, strain KOS); conditions: for Selectivity index (SI) = CC50/EC50: HSV-1, CC50 on Vero cells / EC50; for EC50: read-out: EC50 ±SEM (concentration producing 50% inhibition of virus induced cytopathic effects)
[3] = Cytotoxicity assay (MTS) on Vero cells; assay type: cell-based, African green monkey; conditions: African green monkey
Procedure: (§1) For cytotoxicity and antiviral assays cells were grown in Dulbeccoʼs Modified Eagleʼs growth Medium ( DMEM; Sigma, USA) supplemented with 2% of fetal bovine serum (FBS; Gibco, Germany), 100 μg/mL of streptomycin, 100 UI/mL of penicillin and 0.25 μg/mL amphotericin B ( Gibco, Germany) and 0.14% (v/v) sodium bicarbonate. All the cells were cultured at 37°C in a humidified atmosphere supplied with 5% CO2.
(§2) The Vero cells were seeded onto a 96-well plate at a concentration of 3.5×10^5 Vero cells per mL and a volume of 100 μL per well. Following 24 h incubation at 37 °C, a confluent cell monolayer was confirmed and cell media was removed. Test compounds were serially diluted with the culture medium supplemented with 2% serum to reach the different concentrations. Negative control dilution of DMSO at 0.1 % was also included. An aliquot of 100 μL/well of each diluted compound or DMSO was added to the plates in triplicate. After incubation at 37 °C with 5% CO2 for 3 days, MTS (Cell Titer 96; Promega, USA) was added to each well with a volume of 20 μL. The trays were further incubated for 2 h to allow MTS production. The absorbances were determined with an ELISA reader (Stata Fax 2100, USA) at a test wavelength of 490 nm. Data were calculated as the percentage of inhibition using the following formula: inhibition % =[100 – ( At/ As) × 100]%. At and As refer to the absorbances of the test substances and the solvent control, respectively. CC50 values, defined as the concentration of 50% cellular cytotoxicity (CC50) of test compounds ([7], [8]).

Vero cells = experiment: Cytotoxicity assay (MTS) on Vero cells; assay type: cell-based, African green monkey; conditions: Vero cells, MTS, 3 days incubation, n=3
Procedure: as §1, §2

[4] = Human alphaherpesvirus 1, Vero, 72 h
[5] = CC50 ±SEM (50% cytotoxic concentration on vero cells)

C[C@H](C/C=C/C(C)(C)O)[C@H]1CC[C@@]2(C)C3CCC4C(C)(C)[C@@H](O)CC[C@@]45C[C@@]35CC[C@]12C (stereo partly drawn) [(3β,23E)-Cycloarta-23-ene-3,25-diol, Cycloart-23E-ene-3β,25-diol]
Time of compound addition giving the highest inhibition against HSV-1 infection (HSV-1 [1]): ≤ 2.0 h | Selectivity index (SI) = CC50/EC50 (HSV-1 [2]): 12.57 | EC50 (HSV-1 [2]; [4]): 86.63 ± 0.03 µg/mL (≈ 196 µM) | CC50 at 3 days [3, 5]: 1089.2 ± 0.25 µg/mL (≈ 2460 µM)

Nc1nc2c(ncn2COCCO)c(=O)[nH]1 [Acyclovir, reference compound]
Selectivity index (SI) = CC50/EC50 (HSV-1 [2]): 42.66 | EC50 (HSV-1 [2]; Human alphaherpesvirus 1, 72 h, HSV-1 in Vero cells, MTS, 3 days, three separate experiments): 3 µg/mL (≈ 13.3 µM) | CC50 at 3 days [3, 5]: 128 ± 0.215 µg/mL (≈ 568 µM)

C=C(C)[C@@H]1CC[C@]2(CO)CC[C@]3(C)[C@H](CC[C@@H]4[C@@]5(C)CC[C@H](O)C(C)(C)[C@@H]5CC[C@]43C)[C@@H]12 [Betulin, lup-20(29)-ene-3β,28-diol]
Time of compound addition giving the highest inhibition against HSV-1 infection (HSV-1 [1]): ≤ 2.0 h | Selectivity index (SI) = CC50/EC50 (HSV-1 [2]): 7.83 | Selectivity index (SI) = CC50/EC50 (HSV-1 [2]; listed as betulin): 7.831 | EC50 (HSV-1 [2]; [4]): 84.37 ± 0.018 µg/mL (≈ 191 µM) | CC50 ±SEM (50% cytotoxic concentration on vero cells) (Vero cells): 660.72 ± 0.072 µg/mL (≈ 1490 µM) | CC50 at 3 days ([3]; Vero cells, MTS, 3 days incubation, n=3, read-out: CC50 ±SEM (50% cytotoxic concentration on vero cells)): 660.72 ± 0.072 µg/mL (≈ 1490 µM)
